Values after ≈ are worked out from the molar mass of the structure shown. “Also recorded” adds a separate entry of the source. Like-named read-outs stand apart in the source and are kept apart here.
Key:
[1] = Reaction with tert-butyl hydroperoxide to the sulfoxide; assay type: physicochemical; details: CH2Cl2, RT, after 9 h
From the text: To further investigate the possible involvement of hydroperoxide-induced sulfoxide formation in the antioxidant behaviour of the γ-thia and β-thia fatty acids 18, 19, 106, 108, 109 and 112, compounds 108 and 109 (in a ratio of 1:1 in CH2Cl2) were allowed to react with tert-butyl hydroperoxide. [drawing 37]
The reaction was monitored by TLC and ^1H NMR analysis. […] The ^1H NMR spectrum of compound 114 contains two multiplets at δ2.88-3.07 and two doublets at δ3.63-3.86 corresponding to the methylene protons on the carbons adjacent to sulfur.

[2] = Petri-dish thin film autoxidation of arachidonic acid with thia fatty acids and sulfides (HPLC)
Procedure, shortened: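 Arachidonic acid mixed with each sulfur compound at different ratios, lauric acid as internal standard, cast as thin films on 80 mm glass Petri-dishes. Dishes kept under oxygen in a dark desiccator; residual compounds quantified after 1, 2, 3, 5 and 7 days by reverse-phase HPLC with refractive index detection.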

Paw oedema = details: in vivo
Red blood cells = assay: Incorporation of Lx3 into normal red blood cells; assay type: cell-based; details: 200 μg Lx3, 37° C., 4 h
Method: Red blood cells or parasitised red blood cells (K+ strain, 9.25% parasitaenia) (5×10^8 cells) were incubated with 200 μg of Lx3 in 10 mls of HBSS at 37° C. for 4 h. The incubate was centrifuged (3,000 rpm for 10 min) and the medium aspirated. The cell pellet was washed 3 times with 5 ml of HBSS with centrifugation. Lipids were extracted from the cell pellet and neutral lipids, phospholipids and unesterffied Lx3 were resolved by thin-layer chromatography. The neutral lipid and phospholipid samples were transesterified to release any bound Lx3. The amount of Lx3 associated with the unesterifield, neutral lipid and phospholipid fractions was quantitated by gas-liquid chromatography using nonadecanoic acid (nonadecylic acid (19:0)) methyl ester (48 nmol) as a reference standard. For definitive identification of Lx3 and possible products (elongation, de-saturation, shorter-chain products), a combined gas-liquid chromatography-mass spectrometry (GC-MS) technique was employed. FIG. 6 is the GC-MS (expanded view) of Lx3 isolated from parasitised RBC. The mass spectrum of each peak unambiguously identifies 19:0 and Lx3 (19:3(n-6)-N02) respectively. […] No Lx3 was esterified in neutral lipids and phospholipids (Table 4). It is important to note that parasitised red blood cells took up approximately 6 times more Lx3 than non-parasitised cells. […]

P. falciparum = details: 20 μg/ml
Method: Parasites were treated with 20 μg/ml of compound. Results are means of triplicate assays of one experiment and are consistent with that found in three experiments.

[3] = system: parasitised red blood cells (K+ strain); assay: Incorporation of Lx3 into parasitised red blood cells; assay type: cell-based, P. falciparum
Method: Red blood cells or parasitised red blood cells (K+ strain, 9.25% parasitaenia) (5×10^8 cells) were incubated with 200 μg of Lx3 in 10 mls of HBSS at 37° C. for 4 h. The incubate was centrifuged (3,000 rpm for 10 min) and the medium aspirated. The cell pellet was washed 3 times with 5 ml of HBSS with centrifugation. Lipids were extracted from the cell pellet and neutral lipids, phospholipids and unesterffied Lx3 were resolved by thin-layer chromatography. The neutral lipid and phospholipid samples were transesterified to release any bound Lx3. The amount of Lx3 associated with the unesterifield, neutral lipid and phospholipid fractions was quantitated by gas-liquid chromatography using nonadecanoic acid (nonadecylic acid (19:0)) methyl ester (48 nmol) as a reference standard. For definitive identification of Lx3 and possible products (elongation, de-saturation, shorter-chain products), a combined gas-liquid chromatography-mass spectrometry (GC-MS) technique was employed. FIG. 6 is the GC-MS (expanded view) of Lx3 isolated from parasitised RBC. The mass spectrum of each peak unambiguously identifies 19:0 and Lx3 (19:3(n-6)-N02) respectively. […] No Lx3 was esterified in neutral lipids and phospholipids (Table 4). It is important to note that parasitised red blood cells took up approximately 6 times more Lx3 than non-parasitised cells. […] The lack of derivatisation or incorporation of Lx3 into neutral lipids and phospholipids is almost certainly due to Lx3 not having a carboxylic acid group which is mandatory for the conversion of a fatty acid to its coenzyme A ester.

IFN-γ = IFN-γ production by human peripheral blood leukocytes; assay type: cell-based; details: Leukocyte, stimulus PHA, read-out: % Inhibition (compared to control) of IFN-γ
Method: (§1) The effects of the nitroalkanes (Lx1-Lx5) on lymphocyte activation and cytokine production were examined. The ability of the PUFA to suppress mitogen-induced proliferation in response to PHA and S. aureus, and to inhibit cytokine production (TNFα and IFNγ), was assessed.

TNF-α = TNF-α production by human peripheral blood leukocytes; assay type: cell-based; details: Leukocyte, stimulus S. aureus, read-out: % Inhibition (compared to control) of TNF-α
Method: as §1

P. berghei = assay type: in vivo; parameters: Parasitaemia: unit not given here; details: for Parasitaemia: 40 mg/kg from one day prior to infection, twice a day
Method: In other sets of experiments, the effects of Lx3 were examined in vivo in mice infected with P. berghei. FIG. 10 illustrates the effect of Lx3 on the level of P. berghei parasitaemia in the mice. Results are the means ±SEM of five mice per group. Mice were infected intraperitoneally with the parasite and when an appropriate parasitaemia was reached they were treated intravenously with 40 mg/kg weight of MP3.
Mice were treated at one day prior to infection with 2 doses of 40 mg/kg body weight and then another dose 60 min prior to infection (0 time) on the following day. The parasitaemia was checked 4 h later and at the times stipulated in the Table. The animals were treated with either DPC or Lx3 twice a day 30 min after taking a parasitaemia reading. The results are presented as mean ±SEM of parasitaelnia of 4 mice per group.

[4] = system: Plasmodium falciparum isolates 3D7, FC27, K+; assay: Radiometric (3H-hypoxanthine) assay on asexual blood stages of P. falciparum; assay type: cell-based; details: for EC50: Plasmodium falciparum, read-out: EC50 against P. falciparum
Method: Using the radiometric assay^(36), the effects of the Lx compounds were examined for antimalarial activity. The Plasmodium falciparum isolates used were 3D7, FC27, K^1 and K^+. These were maintained in human blood group O^+ erythrocytes essentially as described previously using RPM-1640 (HEPES modification) supplemented with 0.25% D-glucose, 0.2% Tess buffer (Sigma Chemical Co, Lt Louis, Mo.) and 10% heat inactivated (56° C., 20 min) human blood group AB serum. Cultures were maintained in tissue culture flasks (Corning, N.Y.) at 37° C. under an atmosphere of 1% 2, 5% CO2 in N2. P. falciparum cultures containing approximately 3.0:% parasitaemia were adjusted to 1×10^8 erythrocytes/ml. To 50 μl of the parasite-erythrocyte culture (5×10^6 erythrocytes) in wells of 96-well microdilution plates wvas added 50 μl of the designated concentration of fatty acid or equivalent amounts of solutions or media. The treated cultures were incubated at 37° C. for 4 h and then pulsed with 50 μl (2.5 μCi) of ^3H-hypoxanthine. After a further 18 h incubation the parasites-erythrocytes were harvested onto glass fibre filter papers using a cell harvester. The amount of radioactivity incorporated was measured in a β-counter. The results have been expressed as % inhibition of parasite growth i.e. the dpm in the fatty acid diluent−dpm in the fatty acid treated cultures/dpm in diluent×100.

15-LO = molecular target: T1, 15-LO (Glycine max, UniProt P08170); assay: Effect on 15-LO catalysed oxidation of arachidonic acid; assay type: biochemical, soybean
T1 construct: purchased Sigma Chemical Company
T1 sequence (P08170 1-839): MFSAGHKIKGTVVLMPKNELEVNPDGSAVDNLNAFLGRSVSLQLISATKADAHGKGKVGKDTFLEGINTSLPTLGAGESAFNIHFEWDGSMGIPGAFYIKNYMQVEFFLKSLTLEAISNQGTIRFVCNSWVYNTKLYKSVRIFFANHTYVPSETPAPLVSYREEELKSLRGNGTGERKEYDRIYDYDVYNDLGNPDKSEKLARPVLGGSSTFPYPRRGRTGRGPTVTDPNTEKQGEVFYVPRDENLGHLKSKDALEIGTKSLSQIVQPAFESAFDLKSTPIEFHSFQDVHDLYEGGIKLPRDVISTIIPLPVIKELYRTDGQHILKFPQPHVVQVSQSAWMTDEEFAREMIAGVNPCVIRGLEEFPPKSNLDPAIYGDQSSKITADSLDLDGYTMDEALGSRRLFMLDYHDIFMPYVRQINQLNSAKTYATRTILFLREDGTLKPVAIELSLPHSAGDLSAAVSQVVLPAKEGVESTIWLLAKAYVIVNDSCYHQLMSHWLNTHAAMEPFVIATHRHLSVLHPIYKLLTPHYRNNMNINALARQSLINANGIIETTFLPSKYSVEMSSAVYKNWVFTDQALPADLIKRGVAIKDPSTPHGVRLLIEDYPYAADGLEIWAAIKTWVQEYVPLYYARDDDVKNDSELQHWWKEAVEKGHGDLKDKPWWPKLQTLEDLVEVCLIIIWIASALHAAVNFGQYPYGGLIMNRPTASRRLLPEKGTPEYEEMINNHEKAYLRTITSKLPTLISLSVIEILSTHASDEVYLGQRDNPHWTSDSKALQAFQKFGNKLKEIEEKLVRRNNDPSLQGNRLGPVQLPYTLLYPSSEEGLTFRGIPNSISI

[5] = ratio arachidonic acid:compound 1:1, 1 day
[6] = ratio arachidonic acid:compound 1:1, 2 days

## CCCCCCCCCCCCCCSCC(=O)O [Compound 109, 2-Tetradecylthioacetic acid]
[1]
  Conversion to the sulfoxide by tert-butyl hydroperoxide: 55%
[2]
  Antioxidant effect on autoxidation of arachidonic acid (in words): not significantly inhibited
[2]; [5]
  Arachidonic acid (%) recovered following autoxidation in the presence of the compound: 53%
  Compound (%) recovered following autoxidation with arachidonic acid: 50%
[2]; [6]
  Arachidonic acid (%) recovered following autoxidation in the presence of the compound: 10%
  Compound (%) recovered following autoxidation with arachidonic acid: 16%
[2]; ratio arachidonic acid:compound 1:1, 3 days
  Compound (%) recovered following autoxidation with arachidonic acid: 17%
[2]; ratio arachidonic acid:compound 1:1, 5 days
  Compound (%) recovered following autoxidation with arachidonic acid: 17%
[2]; ratio arachidonic acid:compound 1:1, 7 days
  Compound (%) recovered following autoxidation with arachidonic acid: 16%

## CCCCC/C=C\C/C=C\C/C=C\CCCCC[N+](=O)[O-] [Lx3, (z,z,z)-1-Nitro-6,9,12-octadecatriene]
Paw oedema
  Effect in paw oedema: either inflammatory or anti-inflammatory
Red blood cells
  Recovered cellular Lx3, unesterified Lx3: 2.1 ± 0.2 % of total added
P. falciparum
  Morphology of parasites in treated cultures: degenerate mature rings, trophozoites and shizonts
[3]; GC-MS
  Form of the compound taken up by the cells: remained exclusively in the unesterified form
[3]; either cell population, GC-MS
  Elongation, chain-shortening or de-saturation products detected: No elongation, chain-shortening or de-saturation products
[3]; parasitised red blood cells, 200 μg Lx3, 37° C., 4 h
  Recovered cellular Lx3, unesterified Lx3: 12.9 ± 0.4 % of total added
IFN-γ
  inhibition at 20 µM: 37.6%
TNF-α
  inhibition at 20 µM: 48.2%
P. berghei; intravenous 40 mg/kg
  Tolerability in mice: tolerated Lx3 quite well
P. berghei; mice, 4 h after infection
  Parasitaemia: 0.18 ± 0.05
P. berghei; mice, 22 h after infection
  Parasitaemia: 0.30 ± 0.10
P. berghei; mice, 28 h after infection
  Parasitaemia: 0.14 ± 0.05
P. berghei; mice, 46 h after infection
  Parasitaemia: 0.40 ± 0.14
P. berghei; mice, single intravenous dose 40 mg/kg, within 5 h after injection
  Change in circulating parasites (parasitaemia): marked drop in circulating parasites
[4]
  Antimalarial activity (in words): very active
[4]; 3D7, isolate FC27
  EC50: 6 µg/mL (≈ 20.4 µM)
[4]; 3D7, isolate K+
  EC50: 3 µg/mL (≈ 10.2 µM)
[4]; isolate 3D7
  EC50: 2 µg/mL (≈ 6.82 µM)
  Antimalarial activity on P. falciparum 3D7 (FIG. 1, in words): greatest activity
[4]; chloroquine resistant isolate
  Activity against a chloroquine resistant isolate: active
[4]; compound 20 μg/ml, presence of human serum
  Reduction of antimalarial activity by human serum: did not affect the activity; also recorded: not inhibited by serum
15-LO
  Effect on 15-LO catalysed oxidation of AA: Nil
